Measurements taken from US20220117919A1, “ENHANCED BIOAVAILABILITY OF N-(2,6-BIS(1-METHYLETHYL)PHENYL)-N'-((1-(4-(DIMETHYLAMINO)-PHENYL)CYCLOPENTYL)METHYL)UREA HYDROCHLORIDE” (The Regents of the University of Michigan, priority 2015, published 2022).
Where “and” joins values, the source holds several entries; their conditions need not be identical. Equal entries are not always repeated. Structures can show the parent of a compound that is named as a salt.

Test: Food and acidic beverage effect on bioavailability of ATR-101 tablets, 3-way crossover plasma PK study
Assay type: in vivo, human
Details: single oral 500 mg; for kel: in h-1
Experimental: To evaluate the effects of food and of an acidic beverage on bioavailability of ATR-101 tablets prepared according to Example 2 (see Table 2), an open-label, randomized, 3-period, 3-way crossover, 3-sequence study was carried out with fourteen healthy, adult, non-tobacco using male and female (non-childbearing potential only) human subjects.
Three different treatments A, B, and C were administered as follows:
Treatment A: 500 mg ATR-101 (1×500 mg tablet) administered with water at Hour 0 on Day 1 following an overnight fast.
Treatment B: 500 mg ATR-101 (1×500 mg tablet) administered with water at Hour 0, 30 minutes after the start of a high-fat breakfast, on Day 1.
Treatment C: 500 mg ATR-101 (1×500 mg tablet) administered with Coca-Cola® Classic at Hour 0 on Day 1 following an overnight fast.
On Day 1 of Period 1, subjects were randomized to one of 3 treatment sequences: ABC, BCA, or CBA. For Treatments A and B, ATR-101 was administered orally with approximately 240 mL of water. For Treatment C, ATR-101 was administered orally with approximately 240 mL of Coca-Cola® Classic. Water (except water provided with dosing for Treatments A and B) was restricted 1 hour prior to and 1 hour after each study drug administration, but was allowed ad libitum at all other times. Other fluids were given as part of the standard meals (including the breakfast administered prior to study drug dosing for Treatment B) and/or snacks, but were restricted at all other times (except for the Coca-Cola® Classic beverage provided with dosing in Treatment C) throughout the confinement period.
For Treatments A and C, subjects fasted overnight for at least 10 hours prior to study drug administration and continued the fast for at least 4 hours post-dose.
For Treatment B, subjects were required to fast overnight for at least 10 hours until 30 minutes prior to study drug administration, when they were given breakfast which was entirely consumed within 30 minutes. A representative breakfast includes 2 slices of buttered toast, 2 fried eggs, 2 strips of bacon, 4 oz of hash brown potatoes, and 240 mL of whole milk.
On Day 1 of each period, a standard lunch and dinner was provided at approximately 4 and 9 hours post-dose, respectively, and a snack was also offered at approximately 12 hours post-dose. On other days when confined in the CRU, standard meals and/or snacks were provided at appropriate times. When confined, subjects were required to fast from all food and drink except water between meals and snacks served at the clinical research unit.
Each meal and/or snack served at the clinical research unit was standardized and was similar in caloric content and composition (except for the meal served as part of Treatment B) and was taken at approximately the same time in each period.
For all subjects, blood samples for the determination of ATR-101 plasma concentration were collected at pre-dose and 0.5, 1, 1.5, 2, 2.5, 3, 3.5, 4, 5, 6, 8, 12, 16, 24, 36, and 48 hours post-dose. PK parameters for plasma ATR-101 were calculated as follows: • AUC0-t: The area under the plasma concentration-time curve, from time 0 to the last measurable non-zero concentration, was calculated by the linear trapezoidal method. • AUC0-inf: The area under the plasma concentration-time curve from time 0 extrapolated to infinity. AUC0-inf was calculated as the sum of AUC0-t plus the ratio of the last measurable plasma concentration to the elimination rate constant. • AUC%extrap: Percent of AUC0-inf extrapolated, represented as
[formula] • Cmax: Maximum observed concentration. • tmax: Time to reach Cmax. If the maximum value occurred at more than one time point, tmax was defined as the first time point with this value. • ke1: Apparent first-order terminal elimination rate constant calculated from a semi-log plot of the plasma concentration versus time curve. […]

[1] = Treatment A (fasting with water), Maximum
[2] = Treatment A (fasting with water), Mean
[3] = Treatment A (fasting with water), Median
[4] = Treatment A (fasting with water), Minimum
[5] = Treatment A (fasting with water), individual subject, hydrochloride
[6] = Treatment B (fed with water), Maximum
[7] = Treatment B (fed with water), Mean
[8] = Treatment B (fed with water), Median
[9] = Treatment B (fed with water), Minimum
[10] = Treatment B (fed with water, high-fat breakfast), individual subject, hydrochloride
[11] = Treatment C (fasting with acidic beverage), Maximum
[12] = Treatment C (fasting with acidic beverage), Mean
[13] = Treatment C (fasting with acidic beverage), Median
[14] = Treatment C (fasting with acidic beverage), Minimum

AUC0-inf [1]: 5050 ng·h/mL
AUC0-t [1]: 4860 ng·h/mL
AUC% extrap [1]: 12.7%
Cmax [1]: 933 ng/mL
t1/2 [1]: 22.7 h
tmax [1]: 12.0 h
kel [1]: 0.0612
AUC% extrap [2]: 8.64%
kel [2]: 0.0406
AUC% extrap [3]: 9.43%
kel [3]: 0.0380
AUC0-inf [4]: 2430 ng·h/mL
AUC0-t [4]: 840 ng·h/mL
AUC% extrap [4]: 3.72%
Cmax [4]: 26.1 ng/mL
t1/2 [4]: 11.3 h
tmax [4]: 1.50 h
kel [4]: 0.0305
AUC0-inf [6]: 14000 ng·h/mL
AUC0-t [6]: 13200 ng·h/mL
AUC% extrap [6]: 17.9%
Cmax [6]: 2060 ng/mL
t1/2 [6]: 30.7 h
tmax [6]: 5.00 h
kel [6]: 0.0603
AUC% extrap [7]: 8.00%
kel [7]: 0.0364
AUC% extrap [8]: 7.27%
kel [8]: 0.0366
AUC0-inf [9]: 3790 ng·h/mL
AUC0-t [9]: 3520 ng·h/mL
AUC% extrap [9]: 2.07%
Cmax [9]: 719 ng/mL
t1/2 [9]: 11.5 h
tmax [9]: 1.50 h
kel [9]: 0.0226
AUC0-inf [11]: 6970 ng·h/mL
AUC0-t [11]: 6430 ng·h/mL
AUC% extrap [11]: 21.5%
Cmax [11]: 1550 ng/mL
t1/2 [11]: 27.9 h
tmax [11]: 6.00 h
kel [11]: 0.0501
AUC% extrap [12]: 10.6%
kel [12]: 0.0377
AUC% extrap [13]: 8.95%
kel [13]: 0.0376
AUC0-inf [14]: 728 ng·h/mL
AUC0-t [14]: 572 ng·h/mL
AUC% extrap [14]: 3.84%
Cmax [14]: 19.8 ng/mL
t1/2 [14]: 13.8 h
SMILES: CC(C)c1cccc(C(C)C)c1NC(=O)NCC1(c2ccc(N(C)C)cc2)CCCC1 [ATR-101, N-(2,6-bis(1-methylethyl)phenyl)-N′-((1-(4-(dimethylamino)-phenyl)cyclopentyl)methyl)urea hydrochloride]
AUC0-inf [5]: 2740 and 4290 and 2630 and 2430 and 5050 and 2560 and 4700 and 4940 and 4370
AUC0-t [5]: 2450 and 3180 and 3810 and 2490 and 840 and 2200 and 4860 and 2330 and 1520 and 4100 and 4400 and 3880
AUC% extrap [5]: 10.6% and 6.68% and 11.2% (2×) and 5.32% and 9.43% and 3.72% and 8.82% and 12.7% and 4.61% and 10.8%
Cmax [5]: 509 ng/mL and 620 ng/mL and 807 ng/mL and 26.1 ng/mL and 612 ng/mL and 539 ng/mL and 306 ng/mL and 526 ng/mL and 486 ng/mL and 933 ng/mL and 842 ng/mL
tmax [5]: 2.5 h and 1.50 h and 12.0 h and 1.5 h and 3.00 h
kel [5]: 0.0378 and 0.0414 and 0.0347 and 0.0456 and 0.0380 and 0.0612 and 0.0404 and 0.0317 and 0.0531 and 0.0305 and 0.0318
AUC0-inf [10]: 3790 and 6400 and 14000 and 5390 and 4540 and 7640 and 9000 and 7660 and 7670 and 5830 and 5820 and 4900 and 9990 and 7210
AUC0-t [10]: 3520 and 5930 and 13200 and 5280 and 4120 and 6890 and 8430 and 6810 and 6290 and 5420 and 5310 and 4740 and 9300 and 6570
AUC% extrap [10]: 7.07% and 7.35% and 5.87% and 2.07% and 9.33% and 9.87% and 6.38% and 1.1% and 17.9% and 7.19% and 8.76% and 3.35% and 6.89% and 8.80%
Cmax [10]: 1040 ng/mL and 1620 ng/mL and 2060 ng/mL and 1120 ng/mL and 848 ng/mL and 1340 ng/mL and 2000 ng/mL and 1210 ng/mL and 931 ng/mL and 719 ng/mL and 759 ng/mL and 1690 ng/mL and 993 ng/mL
t1/2 [10]: 19.3 h and 20.9 h and 16.9 h and 11.5 h and 25.1 h and 27.8 h and 18.0 h and 24.9 h and 30.7 h and 17.4 h and 23.9 h and 13.2 h and 17.7 h and 18.6 h
tmax [10]: 1.50 h and 2.50 h and 3.00 h and 5.00 h and 4.01 h and 3.57 h
kel [10]: 0.0359 and 0.0332 and 0.0410 and 0.0603 and 0.0276 and 0.0249 and 0.0385 and 0.0278 and 0.0226 and 0.0398 and 0.0290 and 0.0526 and 0.0392 and 0.0374
